Laboratory results: patent publication EP2138586A1, “Process for the regioselective preparation of disaccharides or oligosaccharides” (Cognis IP Management GmbH, priority 2008, dated 2009)

Test: log P of the solvents used in the transglycosylation (Table 1)
Format: physicochemical
Settings: property of the dialkyl amide solvent; method not described

Question: Which logP does the source give for `CCCCCCCC(=O)N(C)C` [CDMA, caprylic dimethyl amide] here?
Answer: Its logP is 1.42.

Question: With `CC(O)C(=O)N(C)C` (centres unmarked) [LDMA, lactic acid dimethyl amide] as the molecule, how does the logP read?
Answer: Its logP is -0.69.
